Patent publication US8846653B2, “Delta-tocotrienol treatment and prevention of pancreatic cancer” (University of South Florida, priority 2006, dated 2014)

Key:
Type in all cases: cell-based, human
[1] = tested on: MiaPaCa-2 cells; test: MTS assay of MiaPaCa2 cultures, single 50 μM dose; conditions: MiaPaCa2, 50 μM
Summary of the method: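 This MTS viability assay used MiaPaCa2 cultures treated once with 50 μM compound or vehicle, with an untreated culture grown in parallel for comparison. Cells were maintained in DMEM supplemented with 10% FBS, 1% penicillin-streptomycin and 1% L-glutamine at 37° C. under 5% CO2 and humidity.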

[2] = tested on: MiaPaCa-2 cells; test: MTT assay of MiaPaCa2 cultures, single 50 μM dose; design: rel amt (relative value set to the control): unit not given here; conditions: MiaPaCa2, 50 μM; for MTT assay result, av-blank: average minus blank; for MTT assay result, av: average of 7 runs
Summary of the method: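 Viability measured by MTT 48 or 120 hours post-treatment, with a vehicle-only (ethanol-extracted olive oil) culture as control. MiaPaCa-2 cultures received one 50 μM exposure to a tocotrienol, tocopherol, tocopherol succinate, geranylgeraniol or succinic acid.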

[3] = tested on: SW1990 pancreatic cancer cells; test: MTS assay of SW1990 cultures, single 50 μM dose; conditions: SW1990, 50 μM
Summary of the method: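 MTS-based viability was measured 24, 48 or 72 h after a single 50 μM treatment; the agents were α/β/γ/δ-tocotrienol, α/β-tocopherol, tocopherol succinate, geranylgeraniol or succinic acid. The cells were SW1990, cultured in 10% FBS DMEM. Vehicle (ethanol-extracted olive oil) cultures ran in parallel as reference.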

`CC(C)=CCC/C(C)=C/CC/C(C)=C/CC[C@]1(C)CCc2cc(O)cc(C)c2O1` [T3 delta, delta tocotrienol] was tested. Which “rel amt (relative value set to the control)” value ([1]; 24 hours) did it give?
The value was 77.

What about the “MTS assay result, run 1” value ([1]; 24 hours) of the same molecule?
Its value is 0.174.

And the “MTS assay result, run 2” value ([1]; 24 hours)?
Its value is 0.159.

And the “MTS assay result, run 3” value ([1]; 24 hours)?
The value was 0.171.

What about the “MTS assay result, run 4” value ([1]; 24 hours) of the same molecule?
The value was 0.139.

And the “MTS assay result, run 5” value ([1]; 24 hours)?
The value was 0.185.

What about the “MTS assay result, run 6” value ([1]; 24 hours) of the same molecule?
Its value is 0.187.

What about the “MTS assay result, run 7” value ([1]; 24 hours) of the same molecule?
The value was 0.18.

And the “MTS assay result, run 8” value ([1]; 24 hours)?
The value was 0.167.

What about the “MTS assay result, run 9” value ([1]; 24 hours) of the same molecule?
Its value is 0.170.

What about the “rel amt (relative value set to the control)” value ([1]; 48 hours) of the same molecule?
The value was 67.

What about the “MTS assay result, run 1” value ([1]; 48 hours) of the same molecule?
The value was 0.229.

And the “MTS assay result, run 2” value ([1]; 48 hours)?
The value was 0.22.

And the “MTS assay result, run 3” value ([1]; 48 hours)?
The value was 0.218.

What about the “MTS assay result, run 4” value ([1]; 48 hours) of the same molecule?
The value was 0.232.

What about the “MTS assay result, run 5” value ([1]; 48 hours) of the same molecule?
Its value is 0.294.

And the “MTS assay result, run 6” value ([1]; 48 hours)?
Its value is 0.272.

What about the “MTS assay result, run 7” value ([1]; 48 hours) of the same molecule?
Its value is 0.221.

What about the “MTS assay result, run 8” value ([1]; 48 hours) of the same molecule?
Its value is 0.243.

What about the “MTS assay result, run 9” value ([1]; 48 hours) of the same molecule?
Its value is 0.241.

And the “rel amt (relative value set to the control)” value ([1]; 72 hours)?
Its value is 132.

And the “MTS assay result, run 1” value ([1]; 72 hours)?
Its value is 0.667.

What about the “MTS assay result, run 2” value ([1]; 72 hours) of the same molecule?
Its value is 0.615.

What about the “MTS assay result, run 3” value ([1]; 72 hours) of the same molecule?
The value was 0.605.

What about the “MTS assay result, run 4” value ([1]; 72 hours) of the same molecule?
Its value is 0.587.

What about the “MTS assay result, run 5” value ([1]; 72 hours) of the same molecule?
The value was 0.582.

And the “MTS assay result, run 6” value ([1]; 72 hours)?
Its value is 0.491.

What about the “MTS assay result, run 7” value ([1]; 72 hours) of the same molecule?
Its value is 0.524.

And the “MTS assay result, run 8” value ([1]; 72 hours)?
The value was 0.604.

What about the “MTS assay result, run 9” value ([1]; 72 hours) of the same molecule?
Its value is 0.584.

And the “rel amt (relative value set to the control)” value ([2]; 48 hours)?
The value was 70.

What about the “MTT assay result, av-blank” value ([2]; 48 hours) of the same molecule?
The value was 0.217.

And the “MTT assay result, av” value ([2]; 48 hours)?
The value was 0.263.

What about the “MTT assay result, run 1” value ([2]; 48 hours) of the same molecule?
Its value is 0.276.

And the “MTT assay result, run 2” value ([2]; 48 hours)?
Its value is 0.284.

And the “MTT assay result, run 3” value ([2]; 48 hours)?
The value was 0.262.

And the “MTT assay result, run 4” value ([2]; 48 hours)?
The value was 0.239.

And the “MTT assay result, run 5” value ([2]; 48 hours)?
Its value is 0.275.

And the “MTT assay result, run 6” value ([2]; 48 hours)?
Its value is 0.239.

What about the “MTT assay result, run 7” value ([2]; 48 hours) of the same molecule?
The value was 0.269.

And the “rel amt (relative value set to the control)” value ([2]; 120 hours (5 days))?
The value was 72.

And the “MTT assay result, av-blank” value ([2]; 120 hours (5 days))?
The value was 1.304.

And the “MTT assay result, av” value ([2]; 120 hours (5 days))?
Its value is 1.356.

What about the “MTT assay result, run 1” value ([2]; 120 hours (5 days)) of the same molecule?
The value was 1.344.

And the “MTT assay result, run 2” value ([2]; 120 hours (5 days))?
The value was 1.314.

What about the “MTT assay result, run 3” value ([2]; 120 hours (5 days)) of the same molecule?
Its value is 1.27.

And the “MTT assay result, run 4” value ([2]; 120 hours (5 days))?
The value was 1.337.

And the “MTT assay result, run 5” value ([2]; 120 hours (5 days))?
Its value is 1.579.

And the “MTT assay result, run 6” value ([2]; 120 hours (5 days))?
Its value is 1.308.

And the “MTT assay result, run 7” value ([2]; 120 hours (5 days))?
Its value is 1.341.

And the “rel amnt (relative value set to the control)” value ([3]; 24 hours)?
The value was 97.

And the “MTS assay result, run 1” value ([3]; 24 hours)?
Its value is 0.158.

And the “MTS assay result, run 2” value ([3]; 24 hours)?
The value was 0.149.

And the “MTS assay result, run 3” value ([3]; 24 hours)?
Its value is 0.157.

What about the “MTS assay result, run 4” value ([3]; 24 hours) of the same molecule?
Its value is 0.126.

What about the “MTS assay result, run 5” value ([3]; 24 hours) of the same molecule?
Its value is 0.147.

What about the “MTS assay result, run 6” value ([3]; 24 hours) of the same molecule?
The value was 0.135.

And the “MTS assay result, run 7” value ([3]; 24 hours)?
The value was 0.13.

And the “MTS assay result, run 8” value ([3]; 24 hours)?
Its value is 0.142.

What about the “MTS assay result, run 9” value ([3]; 24 hours) of the same molecule?
Its value is 0.143.

And the “rel amnt (relative value set to the control)” value ([3]; 48 hours)?
Its value is 83.

What about the “MTS assay result, run 1” value ([3]; 48 hours) of the same molecule?
The value was 0.131.

And the “MTS assay result, run 2” value ([3]; 48 hours)?
Its value is 0.133.

What about the “MTS assay result, run 3” value ([3]; 48 hours) of the same molecule?
Its value is 0.12.

And the “MTS assay result, run 4” value ([3]; 48 hours)?
Its value is 0.12.

And the “MTS assay result, run 5” value ([3]; 48 hours)?
The value was 0.126.

What about the “MTS assay result, run 6” value ([3]; 48 hours) of the same molecule?
Its value is 0.119.

What about the “MTS assay result, run 7” value ([3]; 48 hours) of the same molecule?
Its value is 0.12.

And the “MTS assay result, run 8” value ([3]; 48 hours)?
The value was 0.142.

What about the “MTS assay result, run 9” value ([3]; 48 hours) of the same molecule?
Its value is 0.127.

What about the “rel amnt (relative value set to the control)” value ([3]; 72 hours) of the same molecule?
The value was 132.

And the “MTS assay result, run 1” value ([3]; 72 hours)?
Its value is 0.667.

What about the “MTS assay result, run 2” value ([3]; 72 hours) of the same molecule?
The value was 0.615.

What about the “MTS assay result, run 3” value ([3]; 72 hours) of the same molecule?
The value was 0.61.

And the “MTS assay result, run 4” value ([3]; 72 hours)?
Its value is 0.587.

And the “MTS assay result, run 5” value ([3]; 72 hours)?
The value was 0.582.

What about the “MTS assay result, run 6” value ([3]; 72 hours) of the same molecule?
Its value is 0.491.

What about the “MTS assay result, run 7” value ([3]; 72 hours) of the same molecule?
The value was 0.52.

And the “MTS assay result, run 8” value ([3]; 72 hours)?
The value was 0.604.

What about the “MTS assay result, run 9” value ([3]; 72 hours) of the same molecule?
Its value is 0.584.
